According to EP3744709B1, “NEW CRYSTAL FORM OF TEMBOTRIONE” (ANHUI JIUYI AGRICULTURE CO., LTD., priority 2018, dated 2020):
In brackets after ≈: the same amount, converted by molar mass.

Tests used:
[1] = Dissolution rate test (suspension in methanol/water with temperature cycling, decomposition after 14 days); assay type: physicochemical; conditions: suspended in methanol : water 1 : 5 (volume), 10-30° C, 14 days later; for decomposition rate: temperature periodically changed at 0.5K/min
Experimental: Further, in the present disclosure, the dissolution rate of crystal from D of tembotrione was tested as following: the crystal form D of tembotrione was suspended in a mixture of methanol and water (the volume ratio of methanol : water was 1 : 5) at a temperature of 10-30° C, and the temperature was changed at a rate of 0.5K/min. […] Crystal forms A, B, C and D of tembotrione were suspended in a mixture of methanol and water (the volume ratio of methanol to water was 1 : 5) at a temperature of 10-30° C, and the temperature was periodically changed at a rate of 0.5K/min.

[2] = physchem; assay type: physicochemical; conditions: for Solubility, water: pH 4; for solubility: 25 °C, thermodynamic from solid
Experimental: At 25±2°C, 100mL (which may be scaled down) solvent was added in a beaker. A certain mass of crystal forms A, B, C and D of tembotrione were weighted (to ensure insufficient dissolution, tembotrione may be weighted more than once if necessary and the total mass was calculated). The solute was gradually added, continuously stirred and sufficiently dissolved until the solution was exactly saturated (if there was solid precipitation, it was filtrated out and dried, and put back to the undissolved solid). Total mass of the undissolved solid was weighted to calculate the mass of the dissolved solid in 100mL (100g) solvent, i.e., the solubility of the solid in the solvent at the temperature. In the present disclosure, solubility of crystal forms A, B, C and D of tembotrione in several common solvents were tested, and the results were shown in Table 2. Table 2 Solubility of crystal forms A, B, C and D of tembotrione in different solvents

Row | Structure (SMILES) | decomposition rate [1] [%] | Solubility, methanol [2] [µg/mL] | Solubility, toluene [2] [µg/mL] | Solubility, water [2] [µg/mL] | dissolution rate ([1]; 0.5K/min) | solubility ([2]; organic solvent or mixture, methanol) [µg/mL] | solubility ([2]; organic solvent or mixture, toluene) [µg/mL] | solubility ([2]; pH 4, aqueous buffer, water) [µg/mL]
1 | CS(=O)(=O)c1ccc(C(=O)C2C(=O)CCCC2=O)c(Cl)c1COCC(F)(F)F [crystal form B, 2-[2-chloro-4-methylsulfonyl-3-(2,2,2-trifluoroethoxymethyl)benzoyl]cyclohexane-1,3-dione] | 0.4 | 8800 (≈ 20 mM) | 81000 (≈ 184 mM) | 280 (≈ 0.635 mM) | – | – | – | –
2 | CS(=O)(=O)c1ccc(C(=O)C2C(=O)CCCC2=O)c(Cl)c1COCC(F)(F)F [crystal form C, 2-[2-chloro-4-methylsulfonyl-3-(2,2,2-trifluoroethoxymethyl)benzoyl]cyclohexane-1,3-dione] | 0.15 | 8500 (≈ 19.3 mM) | 80200 (≈ 182 mM) | 250 (≈ 0.567 mM) | – | – | – | –
3 | CS(=O)(=O)c1ccc(C(=O)C2C(=O)CCCC2=O)c(Cl)c1COCC(F)(F)F [crystal form D, 2-[2-chloro-4-methylsulfonyl-3-(2,2,2-trifluoroethoxymethyl)benzoyl]cyclohexane-1,3-dione] | 0.06 | 8200 (≈ 18.6 mM) | 75700 (≈ 172 mM) | 220 (≈ 0.499 mM) | slow | – | – | –
4 | CS(=O)(=O)c1ccc(C(=O)C2C(=O)CCCC2=O)c(Cl)c1COCC(F)(F)F [crystal form A, 2-[2-chloro-4-methylsulfonyl-3-(2,2,2-trifluoroethoxymethyl)benzoyl]cyclohexane-1,3-dione] | 0.1 | – | – | – | – | 8600 (≈ 19.5 mM) | 80000 (≈ 181 mM) | 260 (≈ 0.59 mM)
